# Data: patent publication EP3755703B1, “N-(PHENYL)-2-(PHENYL)PYRIMIDINE-4-CARBOXAMIDE DERIVATIVES AND RELATED COMPOUNDS AS HPK1 INHIBITORS FOR TREATING CANCER” (Incyte Corporation, priority 2018, dated 2019)
# Molecular target: T1, HPK1 (Homo sapiens, UniProt Q92918)
# T1 construct: purchased SignalChem M23-11G
# T1 sequence (Q92918 1-346 limits assumed): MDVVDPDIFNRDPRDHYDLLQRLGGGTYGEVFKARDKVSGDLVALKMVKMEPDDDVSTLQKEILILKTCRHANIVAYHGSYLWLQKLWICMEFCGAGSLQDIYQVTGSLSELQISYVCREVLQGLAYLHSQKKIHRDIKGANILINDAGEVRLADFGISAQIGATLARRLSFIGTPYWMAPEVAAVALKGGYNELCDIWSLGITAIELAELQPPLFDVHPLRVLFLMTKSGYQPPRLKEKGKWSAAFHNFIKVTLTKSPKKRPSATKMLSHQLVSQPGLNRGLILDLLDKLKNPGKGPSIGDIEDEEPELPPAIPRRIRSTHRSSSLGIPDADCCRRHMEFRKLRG
# Assay: HPK1 Kinase Binding Assay
# Settings: LanthaScreen tracer 222, one hour incubation at 25 °C
# Description: A stock solution of 1 mM test compound was prepared in DMSO. The compound plate was prepared by 3-fold and 11-point serial dilutions. 0.1 µL of the compound in DMSO was transferred from the compound plate to the white 384 well polystyrene plates. The assay buffer contained 50 mM HEPES, pH 7.5, 0.01% Tween-20, 5 mM MgCl2, 0.01% BSA, and 5 mM DTT. 5 µL of 4 nM active HPK1 (SignalChem M23-11G) prepared in the buffer was added to the plate. The enzyme concentration given was based on the given stock concentration reported by the vender. […] After one hour incubation at 25 °C, the plates were read on a PHERAstar FS plate reader (BMG Labtech). Ki values were determined.
row,SMILES,Ki
1,"COc1cccc(F)c1-c1nccc(C(=O)Nc2ccc(Cl)cc2N2C[C@@H](N)C[C@H]2CO)n1 [Example 91, N-(2-((2S,4S)-4-Amino-2-(hydroxymethyl)pyrrolidin-1-yl)-4-chlorophenyl)-2-(2-fluoro-6-methoxyphenyl)pyrimidine-4-carboxamide]",< 100 nM
2,"COc1cccc(F)c1-c1nccc(C(=O)Nc2ccc(-c3c(C)nn(C)c3C)nc2N2C[C@@H](N)C[C@H]2CO)n1 [Example 65, N-(2-((2S,4S)-4-Amino-2-(hydroxymethyl)pyrrolidin-1-yl)-6-(1,3,5-trimethyl-1H-pyrazol-4-yl)pyridin-3-yl)-2-(2-fluoro-6-methoxyphenyl)pyrimidine-4-carboxamide]",< 100 nM
3,"COc1cccc(F)c1-c1nccc(C(=O)Nc2ccccc2C2CCCC(N)C2)n1 (centres unmarked) [Example 80, N-(2-(3-Aminocyclohexyl)phenyl)-2-(2-fluoro-6-methoxyphenyl)pyrimidine-4-carboxamide]",< 100 nM
4,"COc1cccc(F)c1-c1nccc(C(=O)Nc2ccc(-c3c(C)nn(C)c3C)cc2[C@H]2CC[C@@H](N)CC2)n1 [Example 84, N-(2-((cis)-4-Aminocyclohexyl)-4-(1,3,5-trimethyl-1H-pyrazol-4-yl)phenyl)-2-(2-fluoro-6-methoxyphenyl)pyrimidine-4-carboxamide]",< 100 nM
5,"COc1ccc(F)c(F)c1-c1nccc(C(=O)Nc2cc(F)ccc2N2C[C@@H](N)C[C@H]2CO)n1 [Example 68, N-(2-((2S,4S)-4-Amino-2-(hydroxymethyl)pyrrolidin-1-yl)-5-fluorophenyl)-2-(2,3-difluoro-6-methoxyphenyl)pyrimidine-4-carboxamide]",< 100 nM
6,"COc1cccc(F)c1-c1nccc(C(=O)Nc2ccccc2C2CCC(N)C2)n1 (centres unmarked) [Example 81, N-(2-(3-aminocyclopentyl)phenyl)-2-(2-fluoro-6-methoxyphenyl)pyrimidine-4-carboxamide]",< 100 nM
7,"COc1cccc(F)c1-c1nccc(C(=O)Nc2ccc(C(C)C)cc2N2C[C@@H](N)C[C@H]2CO)n1 [Example 48, N-(2-((2S,4S)-4-Amino-2-(hydroxymethyl)pyrrolidin-1-yl)-4-isopropylphenyl)-2-(2-fluoro-6-methoxyphenyl)pyrimidine-4-carb oxamide]",< 100 nM
8,"COc1cccc(F)c1-c1nccc(C(=O)Nc2cccc(C#N)c2N2C[C@H]3C[C@@H]2CN3)n1 [Example 14, N-(2-((1R,4R)-2,5-Diazabicyclo[2.2.1]heptan-2-yl)-3-cyanophenyl)-2-(2-fluoro-6-methoxyphenyl)pyrimidine-4-carboxamide]",< 100 nM
9,"COc1cccc(F)c1-c1nccc(C(=O)Nc2ccc(-c3cnccc3C#N)cc2N2CCO[C@H](CC#N)C2)n1 [Example 102, (R)-N-(2-(2-(Cyanomethyl)morpholino)-4-(4-cyanopyridin-3-yl)phenyl)-2-(2-fluoro-6-methoxyphenyl)pyrimidine-4-carboxamide]",< 100 nM
10,"COc1cccc(F)c1-c1nccc(C(=O)Nc2ccc(-c3cnccc3C#N)cc2N2CC3(CC3)NC[C@H]2CO)n1 [Example 52, (S)-N-(4-(4-Cyanopyridin-3-yl)-2-(6-(hydroxymethyl)-4,7-diazaspiro[2.5]octan-7-yl)phenyl)-2-(2-fluoro-6-methoxyphenyl)pyrimidine-4-carboxamide]",< 100 nM
11,"COc1cccc(F)c1-c1nccc(C(=O)Nc2ccc(-c3cnccc3C#N)cc2N2C[C@@H](N)C[C@H]2C2(O)CC2)n1 [Example 53, N-(2-((2S,4S)-4-Amino-2-(1-hydroxycyclopropyl)pyrrolidin-1-yl)-4-(4-cyanopyridin-3-yl)phenyl)-2-(2-fluoro-6-methoxyphenyl)pyrimidine-4-carboxamide]",< 100 nM
12,"[2H]C([2H])([2H])Oc1ccc(F)c(F)c1-c1nccc(C(=O)Nc2ccc(-c3cnccc3C#N)cc2N2C[C@@H](N)C[C@H]2CO)n1 [Example 76, N-(2-((2S,4S)-4-Amino-2-(hydroxymethyl)pyrrolidin-1-yl)-4-(4-cyanopyridin-3-yl)phenyl)-2-(2,3-difluoro-6-(methoxy-d3)phenyl)pyrimidine-4-carboxamide]",< 100 nM
13,"COc1cccc(F)c1-c1nccc(C(=O)Nc2ccc(-c3cnccc3C#N)cc2N2CC[C@H](N)C[C@@H]2C)n1 [Example 58, N-(2-((2S,4S)-4-Amino-2-methylpiperidin-1-yl)-4-(4-cyanopyridin-3-yl)phenyl)-2-(2-fluoro-6-methoxyphenyl)pyrimidine-4-carboxamide]",< 100 nM

# Next, values leading:
row,Ki,SMILES
1,< 100 nM,"COc1cccc(F)c1-c1nccc(C(=O)Nc2ccc(-c3ccncc3C#N)cc2N2C[C@@H](N)C[C@H]2CO)n1 [Example 41, N-(2-((2S,4S)-4-Amino-2-(hydroxymethyl)pyrrolidin-1-yl)-4-(3-cyanopyridin-4-yl)phenyl)-2-(2-fluoro-6-methoxyphenyl)pyrimidine-4-carboxamide]"
2,< 100 nM,"COc1cccc(F)c1-c1nccc(C(=O)Nc2ccc(F)cc2N2C[C@@H](N)C[C@H]2CO)n1 [Example 92, N-(2-((2S,4S)-4-Amino-2-(hydroxymethyl)pyrrolidin-1-yl)-4-fluorophenyl)-2-(2-fluoro-6-methoxyphenyl)pyrimidine-4-carboxamide]"
3,< 100 nM,"COc1cccc(F)c1-c1nccc(C(=O)Nc2cc(F)cc(Br)c2N2C[C@H]3C[C@@H]2CN3)n1 [Example 13, N-(2-((1R,4R)-2,5-Diazabicyclo[2.2.1]heptan-2-yl)-3-bromo-5-fluorophenyl)-2-(2-fluoro-6-methoxyphenyl)pyrimidine-4-carboxamide]"
4,< 100 nM,"COc1cccc(F)c1-c1nccc(C(=O)Nc2ccc(-c3cnccc3C#N)cc2N2[C@@H]3CN[C@@H](C3)[C@@H]2CO)n1 [Example 56, N-(4-(4-Cyanopyridin-3-yl)-2-((1S,3R,4S)-3-(hydroxymethyl)-2,5-diazabicyclo [2.2.1]heptan-2-yl)phenyl)-2-(2-fluoro-6-methoxyphenyl)pyrimidine-4-carboxamide]"
5,< 100 nM,"COc1cccc(F)c1-c1nccc(C(=O)Nc2ccc(-c3cnccc3C#N)cc2N2CCO[C@H](CO)C2)n1 [Example 100, (S)-N-(4-(4-Cyanopyridin-3-yl)-2-(2-(hydroxymethyl)morpholino)phenyl)-2-(2-fluoro-6-methoxyphenyl)pyrimidine-4-carboxamide]"
6,< 100 nM,"COc1cccc(F)c1-c1nccc(C(=O)Nc2cc(F)ccc2N2CCN[C@H](CO)C2)n1 [Example 104, (S)-N-(5-Fluoro-2-(3-(hydroxymethyl)piperazin-1-yl)phenyl)-2-(2-fluoro-6-methoxyphenyl)pyrimidine-4-carboxamide]"
7,< 100 nM,"COc1cccc(F)c1-c1nccc(C(=O)Nc2cc(F)c(CO)cc2N2C[C@@H]3C[C@H]2CN3)n1 [Example 17, N-(2-((1S,4S)-2,5-Diazabicyclo[2.2.1]heptan-2-yl)-5-fluoro-4-(hydroxymethyl)phenyl)-2-(2-fluoro-6-methoxyphenyl)pyrimidine-4-carboxamide]"
8,< 100 nM,"COc1cccc(F)c1-c1nccc(C(=O)Nc2ccc(-c3c(F)cccc3C#N)cc2N2C[C@@H](N)C[C@H]2CO)n1 [Example 45, N-(3-((2S,4S)-4-Amino-2-(hydroxymethyl)pyrrolidin-1-yl)-2'-cyano-6'-fluorobiphenyl-4-yl)-2-(2-fluoro-6-methoxyphenyl)pyrimidine-4-carboxamide]"
9,< 100 nM,"N#Cc1ccncc1-c1ccc(NC(=O)c2ccnc(-c3c(F)cccc3OC(F)F)n2)c(N2C[C@@H](N)C[C@H]2CO)c1 [Example 95, N-(2-((2S,4S)-4-Amino-2-(hydroxymethyl)pyrrolidin-1-yl)-4-(4-cyanopyridin-3-yl)phenyl)-2-(2-(difluoromethoxy)-6-fluorophenyl)pyrimidine-4-carboxamide]"
10,< 100 nM,"N#Cc1cnc(N2CCCC2)cc1-c1ccc(NC(=O)c2ccnc(-c3c(F)cccc3F)n2)c(N2C[C@@H](N)C[C@H]2CO)c1 [Example 93, N-(2-((2S,4S)-4-Amino-2-(hydroxymethyl)pyrrolidin-1-yl)-4-(5-cyano-2-(pyrrolidin-1-yl)pyridin-4-yl)phenyl)-2-(2,6-difluorophenyl)pyrimidine-4-carboxamide]"
11,< 100 nM,"Cc1c(F)ccc(F)c1-c1nccc(C(=O)Nc2ccc(-c3cnccc3C#N)cc2N2C[C@@H](N)C[C@H]2CO)n1 [Example 71, N-(2-((2S,4S)-4-Amino-2-(hydroxymethyl)pyrrolidin-1-yl)-4-(4-cyanopyridin-3-yl)phenyl)-2-(3,6-difluoro-2-methylphenyl)pyrimidine-4-carboxamide]"
12,< 100 nM,"N#Cc1ccncc1-c1ccc(NC(=O)c2ccnc(-c3c(F)cccc3Cl)n2)c(N2C[C@@H](N)C[C@H]2CO)c1 [Example 64, N-(2-((2S,4S)-4-Amino-2-(hydroxymethyl)pyrrolidin-1-yl)-4-(4-cyanopyridin-3-yl)phenyl)-2-(2-chloro-6-fluorophenyl)pyrimidine-4-carboxamide]"
13,< 100 nM,"N#Cc1ccncc1-c1ccc(NC(=O)c2ccnc(-c3c(F)cccc3F)n2)c(N2C[C@@H](N)C[C@H]2CO)c1 [Example 62, N-(2-((2S,4S)-4-Amino-2-(hydroxymethyl)pyrrolidin-1-yl)-4-(4-cyanopyridin-3-yl)phenyl)-2-(2,6-difluorophenyl)pyrimidine-4-carboxamide]"
